Results on 7 compounds are retold here after patent US6589983B1, “Benzopyran derivative” (Nissan Chemical Industries, Ltd., priority 1999, dated 2003).

One series concerns guinea-pig left atrium muscle. Description: Effects of compound on the functional refractory period in guinea-pig left atrium muscle. Particulars: isolated atrium muscle, stimulated at 1 Hz, compound added cumulatively, 15 minutes per concentration, 36±1° C. The text has this:
Effects of compound on the functional refractory period in guinea-pig left atrium muscle and right ventricular papillary muscle
Hearts were removed from guinea-pigs, and left atrium muscle or right ventricular papillary muscle were isolated therefrom in a Krebs-Henseleit solution aerated with 95% O2+5% CO2. The samples were stimulated electrically at a rate of 1 Hz and a voltage of 1.5 times of the threshold value reacted to stimulation (basic stimulation; S1) by using an electric stimulating apparatus. The contraction occurred at that time was recorded by a thermal stylus recorder via a FD pickup and a strain pressure amplifier. The functional refractory period is defined as the shortest time interval between S1 resulting from determinable contraction and an extra stimulation (S2). The time interval between S1 and S2 in the left atrium muscle sample was started from 150 msec, decreased in 10 msec steps until 100 msec, and thereafter 5 msec steps to the functional refractory period. For the right ventricular papillary muscle sample, it was started from 300 msec and decreased in 10 msec steps until the functional refractory period. Herein, S2 was set at twice of the threshold value which reacted to stimulation. The experimental temperature was 36±1° C. […] After determining the basic value before addition of the compound, the compound was added cumulatively, incubated for 15 minutes for respective concentration, and thereafter the functional refractory period was determined.
As for `CC(=O)Nc1cc2c(cc1[N+](=O)[O-])OC(C)(C)[C@H](O)[C@H]2NCCCCc1ccccc1` [compound 3], the “Prolongation effect on FRP EC20” value was 4.0 µM.

On to `CC(=O)Nc1cc2c(cc1[N+](=O)[O-])OC(C)(C)[C@H](O)[C@H]2NCCc1ccccc1` [compound 1], for which the “Prolongation effect on FRP EC20” value was 6.1 µM.

With `CC(=O)Nc1cc2c(cc1[N+](=O)[O-])OC(C)(C)[C@H](O)[C@H]2NCCc1ccc(O)cc1` [compound 4], the “Prolongation effect on FRP EC20” value was 5.0 µM. In the case of `CC(=O)Nc1cc2c(cc1[N+](=O)[O-])OC(C)(C)[C@H](O)[C@H]2NCCc1ccc([N+](=O)[O-])cc1` [compound 8], the “Prolongation effect on FRP EC20” value came to 1.8 µM.

As to `COc1ccc(CCN[C@H]2c3cc(NC(C)=O)c([N+](=O)[O-])cc3OC(C)(C)[C@@H]2O)cc1` [compound 5], the “Prolongation effect on FRP EC20” value was 5.5 µM. Same read-out and setting: then `CC(=O)Nc1cc2c(cc1[N+](=O)[O-])OC(C)(C)[C@H](O)[C@H]2NCCc1ccc(Cl)cc1` [compound 6], with 1.4 µM.

Tested on in a further series: not given
Assay: not given
Details: not given
In the case of `CC(=O)Nc1cc2c(cc1[N+](=O)[O-])OC(C)(C)[C@H](O)[C@H]2NCCc1ccc([N+](=O)[O-])cc1` (stereo in doubt), the melting point was 211 to 213 °C (dec.).
